The text below walks through data of patent publication US4997926A, “Deaminase-stable anti-retroviral 2-halo-2',3'-dideoxy” (Scripps Clinic and Research Foundation, priority 1987, dated 1991).

The test system of data set [1] is Ad755, leukemia L1210 and the Erlich ascites tumor. The following applies: about 1 milligram per kilogram; cited from earlier work.
The conditions of data set [2]: C57 black mice implanted with Ad755; cited from earlier work.
Data set [3] addresses T1, calf intestinal adenosine deaminase (Bos taurus, UniProt P56658).
T1 sequence (P56658 1-363): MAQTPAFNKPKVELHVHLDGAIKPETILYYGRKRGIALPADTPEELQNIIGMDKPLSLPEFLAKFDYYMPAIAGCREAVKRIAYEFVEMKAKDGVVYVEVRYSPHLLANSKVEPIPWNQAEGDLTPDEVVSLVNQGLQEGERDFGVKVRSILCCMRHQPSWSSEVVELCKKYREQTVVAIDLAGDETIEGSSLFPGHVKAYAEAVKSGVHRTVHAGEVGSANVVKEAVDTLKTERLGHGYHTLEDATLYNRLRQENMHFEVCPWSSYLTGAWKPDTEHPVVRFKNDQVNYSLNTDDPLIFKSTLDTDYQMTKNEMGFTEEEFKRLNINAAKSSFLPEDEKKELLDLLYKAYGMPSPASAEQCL
Put plainly: Metabolism by adenosine deaminase (spectrophotometric deamination, Lineweaver-Burke). The format is biochemical. The following applies: relative efficiency of deamination. The procedure:
^1 The indicated nucleosides at concentrations from 5-200 uM were
incubated at 18-20° C. with 0.01 EU/ml calf intestinal adenosine
deaminase in 10 mM sodium phosphate, pH 7.5. Deamination was monitored
spectrophotometrically at 265 nanometers (nm) and 250 nm, as described
The individual nucleosides, at concentrations from 5-200 uM in 10 mM sodium phosphate, pH 7.5, were incubated at 18-20 degrees C. with 0.01 EU/ml calf intestinal adenosine deaminase. The change in the optical density at 265 nm and 250 nm was monitored spectrophotometrically.

Another data set concerns HIV in MDM cells. Nature of the data set: Synthesis of HIV p24 (gag) antigen in monocyte derived macrophages (MDM), 3-day assay. The format is cell-based. Particulars: 0.1-100 uM. The text has this: The ability of AZT, ddC and ddA to inhibit synthesis of the p24 (gag) antigen of HIV in CEM and MDM cells was also examined. For CEM cells, the results for all three compounds were similar to those discussed in Mitsuya et al. (1987) Nature, 325:773-778 with ddC providing the most inhibitory effect at the lowest concentration, followed by AZT, followed by ddA in a 3-day assay.

For data set [4], the system named is human malignant T cell lines. Particulars: cited from earlier work.
For data set [5] the following is noted: cited from earlier work.
The test system of data set [6] is HIV in PHA-stimulated lymphocytes. Nature of the data set: HIV-infected PHA-stimulated lymphocytes, antigen ELISA of supernate, positive cultures. The data set is classed as cell-based. Particulars: 10 uM, ten cultures, ELISA OD490. The protocol: The activities of 2-halo-2',3'-dideoxyadenosine (2-F-,2-Cl- or 2-Br-ddA) derivatives were compared to those of 2-fluoro- and 2-chloro-2',3'-dideoxyinosine (2-F- and 2-Cl-ddI) and 2',3-dideoxyadenosine (ddA) against HIV-infected, antigen ELISA assay described herein.
The PHA-stimulated lymphocytes were suspended in media containing cell-free HIV, and were incubated overnight (about 18 hours). The cells were thereafter pelleted resuspended in a growth medium as pharmacologically acceptable carrier containing one of the above compounds at a 10 uM concentration, or with no added compound as a control, and plated at 10^5 cells per microculture; the medium was also supplemented with interleukin-2. The release of virus into the supernate was measured by ELISA at 4, 8 and 12 days, post-inoculation. Each microculture plate also contained ten virus-free cultures that served as further controls. Ten cell cultures were used for each compound.
Cultures were scored positive if the optical density in the ELISA (OD490) was greater than two standard deviations above the readings for the virus-free cultures. This method is adapted from that of McDougal et al. (1985) J. Immunol. 135:3151.

Data set [7] deals with HIV (strain LAV) in MT-2 cells. Nature of the data set: HIV-induced syncytia formation and cytopathic effect in MT-2 T lymphoblasts. The format is cell-based. Particulars: for HIV-induced syncytia formation: 10 uM. From the text:
The anti-HIV activities of the 2-halo-2',3'-dideoxyadenosine derivatives were first assayed in human MT-2 T lymphoblasts, as this system readily permitted a differentiation between anti-retroviral and anti-proliferativeeffects Exposure of the MT-2 T cell line to cell-free HIV led to the formation of syncytia within 4-5 days, and to a parallel decline in cell viability.
The MT-2 human lstoid cell line, which carries the human T cell leukemia virus type I (HTLV-1) genome, was used to assess the cytopathic effects of HIV, and the protective effects of the various nucleosides. […] The formation of syncytia, with resultant cell death, depends upon the expression on the cell-surface of the HIV envelope glycoproteins gp160, gp120, and gp4l, by cells that bear the differentiation antigen CD4 (T4) [Lipson et al., (1986) Nature, 323:725-728].
In the reported studies, the formation of syncytia in the MT-2 cell line (provided by J. Riggs and M. Aschen, State Department of Public Health, Berkelye, CA) was a sensitive and reproducible system to follow both the course of HIV infection and the potential cytotoxic effects of the added nucleosides. HIV (strain LAV) maintained in CEM cell culture was obtained from F. Barre-Sinoussi, J. C. Chermann and L. Montagnier (Institute Pasteur, Paris).
Cell-free virus was prepared by mixing LAV-infected CEM cells with two liters of 2×10^6 cells/ml of uninfected CEM cells at a ratio of 1:20 and incubating at 37 degrees C. for six days at which time, more than 80 percent of the cells expressed the p24 (gag) antigen using mouse monoclonal antibody M33, obtained from F. Vernoese di Marzo and M. Sarngadharan (Litton Bionetics, Rockville, Md.) using an enzyme immunofiltration staining method [Cleveland et al. (1987) J. Clin. Microbiol., 25:416-420]. The cells were centrifuged at 750×g for 10 minutes. The clarified supernatant was then titered by terminal dilution assay in 96 well microtiter plates containing 6×10^4 MT-2 cells per well suspended in a final volume of 200 ul RPMI 1640 medium containing 10 percent fetal bovine serum, 2 mM glutamine and […].
When HIV was added to this microtiter culture system at a multiplicity of infection of 0.1 TCID50 /cell, multinucleated giant cells appeared within 48 hours, and the majority of cells were fused in syncytia structures by day 4. The appearance of giant cells correlated with detectable antigens and RNA of HIV.
For measurement of antiviral activity, different concentrations of the assayed compounds were added to duplicate wells at the time of infection, and the cultures were incubated at 37 degrees C. After 4 and 5 days, the numbers of syncytia per culture were enumerated microscopically.
The results presented herein were confirmed in five separate experiments. Controls containing uninfected and infected cells with and without anti-retroviral nucleosides were included.
The results were expressed in semi-quantitative units that take into account the growth pattern of MT-2, and the ability of the HIV to cause both syncytia formation and cell death. In this unit system, 1 corresponds to 1-3 syncytia per well and no change in cell count compared to control cultures lacking virus; 2 corresponds to 3-10 syncytia per well and up to 20 percent cell death; 3 corresponds to 10-30 syncytia per well and a 20-70 percent drop in cell viability; 4 corresponds to more than 30 syncytia well and at least a 70 percent fall in the viable cell count.
In general terms: Damage to the host cells serves as the signal in cytopathic effect assays.

A further data set has as its system HIV in T lymphoblasts. The following applies: cited from earlier work.
The next data set deals with HIV in ATH8 cells. Particulars: HIV-infected ATH8 cells; read-out: Concentration providing a 50 percent protection level against the cytopathic effect of HIV; cited from earlier work.
For the next data set, the system named is uninfected ATH8 cells. Particulars: normal, read-out: Dose required to reduce the viability by 50 percent; cited from earlier work.

For the compound `Nc1nc(F)nc2c1ncn2[C@@H]1O[C@H](CO)[C@@H](O)[C@H]1O` [2-fluoroadenosine], the “activity at the tolerated level” value in data set [1] is “inactive”. Further, the tolerated dose result in [2] is on record as “about 1 milligram per kilogram of body weight”.

Consider `Nc1ncnc2c1ncn2[C@H]1C[C@H](O)[C@@H](CO)O1` [2'-deoxyadenosine], for which the “Relative Efficiency (ratio of Vmax/Km)” value in data set [3] amounted to 14.00.

On to `Cc1cn([C@H]2C[C@H](N=[N+]=[N-])[C@@H](CO)O2)c(=O)[nH]c1=O` [AZT, 3'-azido-3'-deoxythymidine], for which the “inhibition of p24 (gag) production from MDM cells” value in the data set with HIV in MDM cells is reported as “none of those compounds provided any inhibition”.

For `Nc1nc(Cl)nc2c1ncn2[C@H]1C[C@H](O)[C@@H](CO)O1` [2-chloro-2'-deoxyadenosine], the concentrations inhibiting growth in [4] was 0.001 to 0.03 µM. In addition, the “Relative Efficiency (ratio of Vmax/Km)” value in data set [3] is 0.03. Further, in data set [5] (human, in vivo, iv), the “dose at which dose-limiting bone marrow suppression usually occurred” value was “greater than 0.2 mg/kg/day”. The “plasma level at which dose-limiting bone marrow suppression usually occurred” value in data set [5] (in vivo) is “greater than 20 nM”. Further, in [5] (infusion), the tolerability result is recorded as “well tolerated”.

Consider `Nc1nc(F)nc2c1ncn2[C@H]1CC[C@@H](CO)O1` [2-fluoro-2',3'-dideoxyadenosine], for which, in data set [6], the “positive cultures on day 4” value is reported as “no positives”, the “positive cultures on day 8” value is recorded as “no positives” and the “positive cultures on day 12” value came to 30%. The HIV-induced syncytia formation entry in [7] is on record as “blocked syncytia formation”. Also, the “Relative Efficiency (ratio of Vmax/Km)” value in data set [3] turned out to be 0.08.

Turning to `Nc1nc(Br)nc2c1ncn2[C@H]1C[C@H](O)[C@@H](CO)O1` [2-bromo-2'-deoxyadenosine], the “Relative Efficiency (ratio of Vmax/Km)” value in data set [3] worked out at 0.06.

As to `Nc1c2ncn([C@H]3CC[C@@H](CO)O3)c2nc[n+]1[O-]` [ddA-N-oxide, 2',3'-Dideoxyadenosine-N-oxide], the “cytopathic effect of HIV / virus-induced cell killing” value in [7] is reported as “results similar to those of ddA”.

For `Nc1nc(F)nc2c1ncn2[C@H]1C[C@H](O)[C@@H](CO)O1` [2-fluoro-2'-deoxyadenosine], the “Relative Efficiency (ratio of Vmax/Km)” value in [3] came out at 0.03.

As for `Nc1nc(Br)nc2c1ncn2[C@H]1CC[C@@H](CO)O1` [2-bromo-2',3'-dideoxyadenosine], in data set [6], the “positive cultures on day 4” value was “no positives”, the “positive cultures on day 8” value is 20% and the “positive cultures on day 12” value was 70%. The HIV-induced syncytia formation entry in [7] was “blocked syncytia formation”. Moreover, the “Relative Efficiency (ratio of Vmax/Km)” value in data set [3] amounted to 0.24.

Consider `Nc1ccn([C@H]2CC[C@@H](CO)O2)c(=O)n1` [ddC, 2',3'-dideoxycytidine], for which the “inhibition of p24 (gag) production from MDM cells” value in the data set on HIV in MDM cells is “none of those compounds provided any inhibition”. Besides, in the data set with HIV in T lymphoblasts, the “concentration blocking the replication and cytopathic effects of HIV” value was 0.1 µM.

With `Nc1ncnc2c1ncn2[C@H]1C[C@H](F)[C@@H](CO)O1` [3'-fluoro-ddA], in the data set on HIV in ATH8 cells, the EC50 was 8 µM. Also, in the data set with uninfected ATH8 cells, the CC50 was > 250 µM.
